Data: ChEMBL document CHEMBL2331098, “Unprecedented polyketides from a marine sponge-associated Stachylidium sp” (J Nat Prod, 2013)
Activity calls are given as the source filed them.

Experiments:
Priestia megaterium = experiment: Antimicrobial activity against Bacillus megaterium; format: functional, organism-based
Microbotryum violaceum = experiment: Antimicrobial activity against Microbotryum violaceum; format: functional, organism-based
Mycotypha microspora = experiment: Antimicrobial activity against Mycotypha microspora; format: functional, organism-based
Aspergillus ruber = experiment: Antimicrobial activity against Eurotium rubrum; format: functional, organism-based
MCF7 = experiment: Cytotoxicity against human MCF7 cells at 100 uM; format: functional, cell-based
Homo sapiens [1] = species on record: Homo sapiens; experiment: Inhibition of NF-kappaB protein complex (unknown origin) at 100 uM
[Chlorella] fusca = Antimicrobial activity against Chlorella fusca; format: functional, organism-based; conditions: Scenedesmus fuscus
SF-268 = experiment: Cytotoxicity against human SF268 cells at 100 uM; format: functional, cell-based
Escherichia coli = experiment: Antimicrobial activity against Escherichia coli; format: functional, organism-based
NCI-H460 = experiment: Cytotoxicity against human NCI-H460 cells at 100 uM; format: functional, cell-based
[2] = biological target: T1, Peroxisome proliferator-activated receptor (Homo sapiens) (UniProt P37231+Q07869+Q03181); experiment: Activity at PPAR (unknown origin) by PPAR ligand assay; format: protein assay
3T3-L1 = experiment: Induction of glucose uptake in mouse 3T3L1 cells at 100 uM; format: functional, cell-based
Adipocyte [3] = experiment: Induction of glucose uptake in mouse primary adipocyte cells at 100 uM; format: functional, cell-based
[4] = biological target: T1, Peroxisome proliferator-activated receptor (Homo sapiens); experiment: Activity at PPAR (unknown origin) by PPAR co-activator assay; format: protein assay
[5] = biological target: Tyrosine-protein phosphatase non-receptor type 1 (Homo sapiens) (UniProt P18031); experiment: Inhibition of PTP1B (unknown origin)
Tyrosine-protein phosphatase non-receptor type 1 (Homo sapiens), sequence (P18031 whole entry): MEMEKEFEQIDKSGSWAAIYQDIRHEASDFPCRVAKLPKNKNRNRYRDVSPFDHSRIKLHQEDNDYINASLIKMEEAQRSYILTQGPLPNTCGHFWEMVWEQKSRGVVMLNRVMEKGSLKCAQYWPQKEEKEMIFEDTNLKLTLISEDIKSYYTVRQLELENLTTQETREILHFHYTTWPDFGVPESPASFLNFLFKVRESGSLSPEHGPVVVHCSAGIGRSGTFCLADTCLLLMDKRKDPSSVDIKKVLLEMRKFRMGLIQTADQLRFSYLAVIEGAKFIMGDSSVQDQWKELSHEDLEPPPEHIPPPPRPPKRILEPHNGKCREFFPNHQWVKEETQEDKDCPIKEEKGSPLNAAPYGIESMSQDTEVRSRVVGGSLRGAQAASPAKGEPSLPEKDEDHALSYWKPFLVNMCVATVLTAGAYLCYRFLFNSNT

Adipocyte [6] = experiment: Induction of glucose uptake in rat primary adipocyte cells at 100 uM; format: functional, cell-based
[7] = biological target: Alpha-1B adrenergic receptor (Homo sapiens) (UniProt P35368); experiment: Displacement of [3H]prazosin from alpha1B receptor (unknown origin) at 10 uM
Alpha-1B adrenergic receptor (Homo sapiens), sequence (P35368 whole entry): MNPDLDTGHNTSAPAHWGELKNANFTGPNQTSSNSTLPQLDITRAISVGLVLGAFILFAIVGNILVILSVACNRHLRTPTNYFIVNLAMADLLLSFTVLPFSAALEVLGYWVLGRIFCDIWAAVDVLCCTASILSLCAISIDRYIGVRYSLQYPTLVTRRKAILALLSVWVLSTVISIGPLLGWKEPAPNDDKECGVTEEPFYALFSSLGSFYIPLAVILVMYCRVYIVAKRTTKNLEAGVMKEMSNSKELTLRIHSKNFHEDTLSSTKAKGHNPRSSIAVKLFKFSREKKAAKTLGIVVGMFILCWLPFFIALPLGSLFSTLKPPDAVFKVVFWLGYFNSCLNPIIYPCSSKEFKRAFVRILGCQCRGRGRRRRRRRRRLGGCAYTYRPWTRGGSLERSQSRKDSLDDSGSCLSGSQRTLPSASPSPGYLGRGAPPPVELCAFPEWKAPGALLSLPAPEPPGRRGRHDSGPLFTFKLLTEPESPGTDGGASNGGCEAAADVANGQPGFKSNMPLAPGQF

[8] = biological target: GABA-A receptor; agonist GABA site (Homo sapiens) (UniProt P14867+P47870+P28472+P48169+P34903+P18505+P47869+P31644+Q16445); experiment: Displacement of [3H]muscimol from GABAA receptor (unknown origin) at 10 uM; format: protein-complex assay
[9] = biological target: Muscarinic acetylcholine receptor M4 (Homo sapiens) (UniProt P08173); experiment: Displacement of [3H]QNB from M4 receptor (unknown origin) at 10 uM
[10] = biological target: Muscarinic acetylcholine receptor M3 (Homo sapiens) (UniProt P20309); experiment: Displacement of [3H]QNB from M3 receptor (unknown origin) at 10 uM
[11] = biological target: 5-hydroxytryptamine receptor 1B (Homo sapiens) (UniProt P28222); experiment: Displacement of [3H][…] from 5-HT1B receptor (unknown origin) at 10 uM
5-hydroxytryptamine receptor 1B (Homo sapiens), sequence (P28222 whole entry): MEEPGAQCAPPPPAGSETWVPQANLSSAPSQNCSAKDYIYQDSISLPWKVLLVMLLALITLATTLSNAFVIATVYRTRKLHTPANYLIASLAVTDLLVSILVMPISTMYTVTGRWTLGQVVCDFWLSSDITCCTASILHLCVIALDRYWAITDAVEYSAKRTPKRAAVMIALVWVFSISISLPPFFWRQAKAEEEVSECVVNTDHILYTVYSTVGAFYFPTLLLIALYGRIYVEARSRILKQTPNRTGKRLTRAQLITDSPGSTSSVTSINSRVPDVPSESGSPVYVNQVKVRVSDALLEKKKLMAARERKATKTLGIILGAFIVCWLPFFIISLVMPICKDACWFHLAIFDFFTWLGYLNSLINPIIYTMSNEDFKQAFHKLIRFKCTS

Homo sapiens [12] = species on record: Homo sapiens; experiment: Displacement of [3H]DTG from sigma2 receptor (unknown origin) at 10 uM
[13] = biological target: D(1A) dopamine receptor (Homo sapiens) (UniProt P21728); experiment: Displacement of [3H][…] from D1 receptor (unknown origin) at 10 uM
[14] = biological target: Alpha-2B adrenergic receptor (Homo sapiens) (UniProt P18089); experiment: Displacement of [3H]clonidine from alpha2B receptor (unknown origin) at 10 uM
Alpha-2B adrenergic receptor (Homo sapiens), sequence (P18089 whole entry): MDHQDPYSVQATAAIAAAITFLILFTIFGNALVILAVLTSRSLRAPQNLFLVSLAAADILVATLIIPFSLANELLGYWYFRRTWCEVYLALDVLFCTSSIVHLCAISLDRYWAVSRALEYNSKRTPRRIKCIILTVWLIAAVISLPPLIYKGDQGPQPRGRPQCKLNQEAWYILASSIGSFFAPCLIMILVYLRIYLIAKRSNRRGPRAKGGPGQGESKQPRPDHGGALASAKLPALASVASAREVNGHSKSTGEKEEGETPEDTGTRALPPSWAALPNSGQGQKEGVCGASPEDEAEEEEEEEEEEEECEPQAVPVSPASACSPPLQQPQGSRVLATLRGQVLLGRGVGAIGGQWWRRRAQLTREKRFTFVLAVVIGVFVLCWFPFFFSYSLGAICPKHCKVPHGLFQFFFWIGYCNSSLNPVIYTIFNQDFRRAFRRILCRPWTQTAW

[15] = biological target: 5-hydroxytryptamine receptor 2A (Homo sapiens) (UniProt P28223); experiment: Displacement of [3H]ketanserin from 5-HT2A receptor (unknown origin) at 10 uM
[16] = biological target: D(1B) dopamine receptor (Homo sapiens) (UniProt P21918); experiment: Displacement of [3H][…] from D5 receptor (unknown origin) at 10 uM
Rattus norvegicus = species on record: Rattus norvegicus; experiment: Displacement of [3H]flunitrazepam from rat brain BZP receptor (unknown origin) at 10 uM
[17] = biological target: Histamine H2 receptor (Homo sapiens) (UniProt P25021); experiment: Displacement of [3H]tiotidine from H2 receptor (unknown origin) at 10 uM
[18] = biological target: Alpha-1A adrenergic receptor (Homo sapiens) (UniProt P35348); experiment: Displacement of [3H]prazosin from alpha1A receptor (unknown origin) at 10 uM
[19] = biological target: Beta-3 adrenergic receptor (Homo sapiens) (UniProt P13945); experiment: Displacement of [125I]iodopindolol from beta3 receptor (unknown origin) at 10 uM
[20] = biological target: 5-hydroxytryptamine receptor 5A (Homo sapiens) (UniProt P47898); experiment: Displacement of [3H]LSD from 5-HT5A receptor (unknown origin) at 10 uM
[21] = biological target: Beta-1 adrenergic receptor (Homo sapiens) (UniProt P08588); experiment: Displacement of [125I]iodopindolol from beta1 receptor (unknown origin) at 10 uM
Beta-1 adrenergic receptor (Homo sapiens), sequence (P08588 whole entry, looked up): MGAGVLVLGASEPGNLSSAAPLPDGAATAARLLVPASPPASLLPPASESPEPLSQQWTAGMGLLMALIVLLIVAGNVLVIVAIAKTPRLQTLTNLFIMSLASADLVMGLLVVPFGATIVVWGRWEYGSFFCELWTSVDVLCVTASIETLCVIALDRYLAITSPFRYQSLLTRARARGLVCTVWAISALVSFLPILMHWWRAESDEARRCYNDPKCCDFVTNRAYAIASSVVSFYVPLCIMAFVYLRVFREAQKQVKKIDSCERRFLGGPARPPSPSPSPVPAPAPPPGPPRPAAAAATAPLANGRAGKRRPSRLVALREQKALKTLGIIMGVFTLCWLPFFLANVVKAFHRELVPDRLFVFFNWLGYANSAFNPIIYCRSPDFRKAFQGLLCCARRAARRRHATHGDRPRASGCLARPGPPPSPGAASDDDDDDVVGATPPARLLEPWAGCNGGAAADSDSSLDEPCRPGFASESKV

[22] = biological target: Alpha-2C adrenergic receptor (Homo sapiens) (UniProt P18825); experiment: Displacement of [3H]clonidine from alpha2C receptor (unknown origin) at 10 uM
[23] = biological target: D(3) dopamine receptor (Homo sapiens) (UniProt P35462); experiment: Displacement of [3H]N-methylspiperone from D3 receptor (unknown origin) at 10 uM
[24] = biological target: 5-hydroxytryptamine receptor 1E (Homo sapiens) (UniProt P28566); experiment: Displacement of [3H]5-HT from 5-HT1E receptor (unknown origin) at 10 uM
5-hydroxytryptamine receptor 1E (Homo sapiens), sequence (P28566 whole entry): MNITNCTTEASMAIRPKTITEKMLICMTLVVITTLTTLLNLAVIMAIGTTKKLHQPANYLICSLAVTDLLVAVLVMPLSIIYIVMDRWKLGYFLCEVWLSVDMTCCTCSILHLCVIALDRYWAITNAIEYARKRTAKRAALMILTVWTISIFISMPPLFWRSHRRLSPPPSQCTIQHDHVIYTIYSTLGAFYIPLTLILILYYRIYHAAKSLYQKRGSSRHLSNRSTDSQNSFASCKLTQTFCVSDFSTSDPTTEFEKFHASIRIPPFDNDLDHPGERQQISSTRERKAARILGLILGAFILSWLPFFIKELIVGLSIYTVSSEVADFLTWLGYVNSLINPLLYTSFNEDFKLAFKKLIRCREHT

[25] = biological target: Alpha-1D adrenergic receptor (Homo sapiens) (UniProt P25100); experiment: Displacement of radiolabeled ligand from alpha1D receptor (unknown origin) at 10 uM
[26] = biological target: 5-hydroxytryptamine receptor 7 (Homo sapiens) (UniProt P34969); experiment: Displacement of [3H]LSD from 5-HT7 receptor (unknown origin) at 10 uM
5-hydroxytryptamine receptor 7 (Homo sapiens), sequence (P34969 whole entry): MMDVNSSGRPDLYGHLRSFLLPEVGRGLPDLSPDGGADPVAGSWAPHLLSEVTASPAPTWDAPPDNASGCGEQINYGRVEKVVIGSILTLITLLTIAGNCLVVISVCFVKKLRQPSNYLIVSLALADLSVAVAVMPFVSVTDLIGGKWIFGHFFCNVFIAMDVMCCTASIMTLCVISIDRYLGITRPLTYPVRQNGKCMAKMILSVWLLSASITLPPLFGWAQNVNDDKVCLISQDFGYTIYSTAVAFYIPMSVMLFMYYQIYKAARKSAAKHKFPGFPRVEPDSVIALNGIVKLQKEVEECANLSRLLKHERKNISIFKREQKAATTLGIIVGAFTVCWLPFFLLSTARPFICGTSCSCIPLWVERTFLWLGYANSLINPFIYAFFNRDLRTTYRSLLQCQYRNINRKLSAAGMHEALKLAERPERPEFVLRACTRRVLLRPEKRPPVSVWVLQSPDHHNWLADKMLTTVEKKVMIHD

[27] = biological target: D(4) dopamine receptor (Homo sapiens) (UniProt P21917); experiment: Displacement of [3H]N-methylspiperone from D4 receptor (unknown origin) at 10 uM
[28] = biological target: Delta-type opioid receptor (Homo sapiens) (UniProt P41143); experiment: Displacement of [3H]DADLE from delta opioid receptor (unknown origin) at 10 uM
[29] = biological target: Sodium-dependent serotonin transporter (Homo sapiens) (UniProt P31645); experiment: Displacement of [3H]citalopram from SERT (unknown origin) at 10 uM
[30] = biological target: Histamine H3 receptor (Homo sapiens) (UniProt Q9Y5N1); experiment: Displacement of [3H]alpha-methylhistamine from H3 receptor (unknown origin) at 10 uM
[31] = biological target: Sodium-dependent noradrenaline transporter (Homo sapiens) (UniProt P23975); experiment: Displacement of [3H]nisoxetine from NET (unknown origin) at 10 uM
[32] = biological target: 5-hydroxytryptamine receptor 1A (Homo sapiens) (UniProt P08908); experiment: Displacement of [3H]8-OH-DPAT from 5-HT1A receptor (unknown origin) at 10 uM
5-hydroxytryptamine receptor 1A (Homo sapiens), sequence (P08908 whole entry): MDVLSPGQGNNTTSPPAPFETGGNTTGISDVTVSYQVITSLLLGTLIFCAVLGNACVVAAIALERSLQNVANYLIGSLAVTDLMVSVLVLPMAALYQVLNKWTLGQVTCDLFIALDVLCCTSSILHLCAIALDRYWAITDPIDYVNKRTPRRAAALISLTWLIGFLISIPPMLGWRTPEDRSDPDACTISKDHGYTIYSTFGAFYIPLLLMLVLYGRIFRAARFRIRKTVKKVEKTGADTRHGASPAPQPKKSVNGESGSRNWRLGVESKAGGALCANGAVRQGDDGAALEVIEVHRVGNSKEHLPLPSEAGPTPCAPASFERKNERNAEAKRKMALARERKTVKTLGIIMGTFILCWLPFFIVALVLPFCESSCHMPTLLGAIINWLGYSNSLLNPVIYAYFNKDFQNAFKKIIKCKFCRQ

[33] = biological target: 5-hydroxytryptamine receptor 6 (Homo sapiens) (UniProt P50406); experiment: Displacement of [3H]LSD from 5-HT6 receptor (unknown origin) at 10 uM
[34] = biological target: 5-hydroxytryptamine receptor 2C (Homo sapiens) (UniProt P28335); experiment: Displacement of [3H]mesulergine from 5-HT2C receptor (unknown origin) at 10 uM
5-hydroxytryptamine receptor 2C (Homo sapiens), sequence (P28335 whole entry): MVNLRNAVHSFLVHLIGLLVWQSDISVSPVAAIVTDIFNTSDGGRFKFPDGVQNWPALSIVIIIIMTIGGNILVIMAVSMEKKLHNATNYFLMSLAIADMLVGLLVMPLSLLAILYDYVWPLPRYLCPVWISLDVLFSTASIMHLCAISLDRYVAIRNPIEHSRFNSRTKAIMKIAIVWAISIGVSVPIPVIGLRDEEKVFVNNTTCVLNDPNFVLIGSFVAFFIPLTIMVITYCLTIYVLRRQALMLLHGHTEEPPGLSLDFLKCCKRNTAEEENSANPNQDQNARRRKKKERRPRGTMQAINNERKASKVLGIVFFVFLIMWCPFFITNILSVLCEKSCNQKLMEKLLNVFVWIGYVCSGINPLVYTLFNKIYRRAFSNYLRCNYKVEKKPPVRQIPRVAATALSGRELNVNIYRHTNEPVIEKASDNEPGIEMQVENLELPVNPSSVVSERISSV

[35] = biological target: Sodium-dependent dopamine transporter (Homo sapiens) (UniProt Q01959); experiment: Displacement of [3H]WIN35428 from DAT (unknown origin) at 10 uM
[36] = biological target: 5-hydroxytryptamine receptor 1D (Homo sapiens) (UniProt P28221); experiment: Displacement of [3H][…] from 5-HT1D receptor (unknown origin) at 10 uM
[37] = biological target: Muscarinic acetylcholine receptor M2 (Homo sapiens) (UniProt P08172); experiment: Displacement of [3H]QNB from M2 receptor (unknown origin) at 10 uM
[38] = biological target: Histamine H4 receptor (Homo sapiens) (UniProt Q9H3N8); experiment: Displacement of [3H]histamine from H4 receptor (unknown origin) at 10 uM
Histamine H4 receptor (Homo sapiens), sequence (Q9H3N8 whole entry): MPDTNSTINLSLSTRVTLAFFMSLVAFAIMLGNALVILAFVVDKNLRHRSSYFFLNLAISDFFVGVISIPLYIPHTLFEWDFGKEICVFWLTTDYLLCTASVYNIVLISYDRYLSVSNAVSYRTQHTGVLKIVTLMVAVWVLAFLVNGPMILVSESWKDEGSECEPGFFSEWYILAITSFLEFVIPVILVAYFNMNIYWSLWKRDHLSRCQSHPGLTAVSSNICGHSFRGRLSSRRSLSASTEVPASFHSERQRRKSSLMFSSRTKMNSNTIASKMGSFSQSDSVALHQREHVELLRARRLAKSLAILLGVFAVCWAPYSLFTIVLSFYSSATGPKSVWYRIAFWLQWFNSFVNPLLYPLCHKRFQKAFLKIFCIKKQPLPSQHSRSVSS

[39] = biological target: Beta-2 adrenergic receptor (Homo sapiens) (UniProt P07550); experiment: Displacement of [125I]iodopindolol from beta2 receptor (unknown origin) at 10 uM
[40] = biological target: Muscarinic acetylcholine receptor M5 (Homo sapiens) (UniProt P08912); experiment: Displacement of [3H]QNB from M5 receptor (unknown origin) at 10 uM
[41] = biological target: Sigma non-opioid intracellular receptor 1 (Homo sapiens) (UniProt Q99720); experiment: Displacement of [3H]pentazocine from sigma1 receptor (unknown origin) at 10 uM
[42] = biological target: Alpha-2A adrenergic receptor (Homo sapiens) (UniProt P08913); experiment: Displacement of [3H]clonidine from alpha2A receptor (unknown origin) at 10 uM
[43] = biological target: D(2) dopamine receptor (Homo sapiens) (UniProt P14416); experiment: Displacement of [3H]N-methylspiperone from D2 receptor (unknown origin) at 10 uM
[44] = biological target: Muscarinic acetylcholine receptor M1 (Homo sapiens) (UniProt P11229); experiment: Displacement of [3H]QNB from M1 receptor (unknown origin) at 10 uM
Muscarinic acetylcholine receptor M1 (Homo sapiens), sequence (P11229 whole entry): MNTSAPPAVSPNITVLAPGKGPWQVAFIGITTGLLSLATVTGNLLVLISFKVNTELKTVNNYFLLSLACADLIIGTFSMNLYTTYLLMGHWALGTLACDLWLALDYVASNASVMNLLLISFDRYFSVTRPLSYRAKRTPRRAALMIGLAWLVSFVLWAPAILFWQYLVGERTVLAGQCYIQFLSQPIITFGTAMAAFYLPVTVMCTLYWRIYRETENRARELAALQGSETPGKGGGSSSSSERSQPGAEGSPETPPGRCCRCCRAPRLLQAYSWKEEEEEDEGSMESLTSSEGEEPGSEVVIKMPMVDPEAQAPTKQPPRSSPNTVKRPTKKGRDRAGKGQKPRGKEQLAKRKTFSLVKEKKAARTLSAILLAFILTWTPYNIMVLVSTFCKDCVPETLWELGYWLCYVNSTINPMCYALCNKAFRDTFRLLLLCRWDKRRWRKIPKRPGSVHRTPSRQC

[45] = biological target: Histamine H1 receptor (Homo sapiens) (UniProt P35367); experiment: Displacement of [3H]pyrilamine from H1 receptor (unknown origin) at 10 uM
[46] = biological target: 5-hydroxytryptamine receptor 3A (Homo sapiens) (UniProt P46098); experiment: Displacement of [3H]LY278584 from 5-HT3 receptor (unknown origin) at 10 uM
[47] = biological target: Kappa-type opioid receptor (Homo sapiens) (UniProt P41145); experiment: Displacement of [3H]U69593 from kappa opioid receptor (unknown origin) at 10 uM
[48] = biological target: Mu-type opioid receptor (Homo sapiens) (UniProt P35372); experiment: Displacement of [3H]DAMGO from mu opioid receptor (unknown origin) at 10 uM
[49] = biological target: 5-hydroxytryptamine receptor 2B (Homo sapiens) (UniProt P41595); experiment: Displacement of [3H]LSD from 5-HT2B receptor (unknown origin) at 10 uM

COc1c(C)c(OC/C=C(\C)CCC=C(C)C)cc2c1[C@H](OC)O[C@@]2(C)OC
inactive: Activity (Priestia megaterium) | Activity (Microbotryum violaceum) | Activity (Mycotypha microspora) | Activity (Aspergillus ruber) | Activity (MCF7) | Activity (Homo sapiens [1]) | Activity ([Chlorella] fusca) | Activity (SF-268) | Activity (Escherichia coli) | Activity (NCI-H460)

CCc1cc(O)c(C)c(=O)o1
inactive: Activity (Priestia megaterium) | Activity [2] | Activity (Microbotryum violaceum) | Activity (Mycotypha microspora) | Activity (Aspergillus ruber) | inhibition (3T3-L1) | Activity ([Chlorella] fusca) | inhibition (Adipocyte [3]) | Activity [4] | inhibition [5] | inhibition (Adipocyte [6]) | Activity (Escherichia coli)

CCc1cc(O)c(C)c(OC)c1CC(C)C(=O)CC(O)CC (configuration not stated)
inactive: Activity (Priestia megaterium) | Activity (Microbotryum violaceum) | Activity (Mycotypha microspora) | Activity (Aspergillus ruber) | Activity ([Chlorella] fusca) | Activity (Escherichia coli)

COc1c(C)c(OC/C=C(\C)CCC=C(C)C)cc2c1[C@H](OC)O[C@]2(C)OC
inactive: Activity (Priestia megaterium) | Activity (Microbotryum violaceum) | Activity (Mycotypha microspora) | Activity (Aspergillus ruber) | Activity (Homo sapiens [1]) | Activity ([Chlorella] fusca) | Activity (Escherichia coli)

COCc1c(C(C)O)cc(O)c(C)c1OC (configuration not stated)
inactive: inhibition [7] | Activity (Priestia megaterium) | inhibition [8] | inhibition [9] | inhibition [10] | inhibition [11] | inhibition (Homo sapiens [12]) | inhibition [13] | inhibition [14] | Activity (Microbotryum violaceum) | inhibition [15] | Activity (Mycotypha microspora) | inhibition [16] | Activity (Aspergillus ruber) | inhibition (Rattus norvegicus) | inhibition [17] | inhibition [18] | inhibition [19] | inhibition [20] | inhibition [21] | inhibition [22] | inhibition [23] | inhibition [24] | inhibition [25] | inhibition [26] | inhibition [27] | inhibition [28] | inhibition [29] | Activity ([Chlorella] fusca) | inhibition [30] | inhibition [31] | inhibition [32] | inhibition [33] | inhibition [34] | inhibition [35] | inhibition [36] | inhibition [37] | inhibition [38] | inhibition [39] | inhibition [40] | inhibition [41] | inhibition [42] | inhibition [43] | inhibition [44] | Activity (Escherichia coli) | inhibition [45] | inhibition [46] | inhibition [47] | inhibition [48] | inhibition [49]

COCc1c(CO)cc(O)c(C)c1OC
inactive: Activity (Priestia megaterium) | Activity (Microbotryum violaceum) | Activity (Mycotypha microspora) | Activity (Aspergillus ruber) | Activity ([Chlorella] fusca) | Activity (Escherichia coli)

COc1c(C)c(O)cc2c1C(O)CC2=O (configuration not stated)
inactive: Activity (Priestia megaterium) | Activity [2] | Activity (Microbotryum violaceum) | Activity (Mycotypha microspora) | Activity (Aspergillus ruber) | Activity (MCF7) | Activity (Homo sapiens [1]) | inhibition (3T3-L1) | Activity ([Chlorella] fusca) | inhibition (Adipocyte [3]) | Activity [4] | Activity (SF-268) | inhibition [5] | inhibition (Adipocyte [6]) | Activity (Escherichia coli) | Activity (NCI-H460)
